This note sets out measurements from ChEMBL document CHEMBL1275405, “Population pharmacokinetics of levofloxacin, gatifloxacin, and moxifloxacin in adults with pulmonary tuberculosis” (Antimicrob Agents Chemother, 2008).

Each structure is given as a SMILES string. Values after ≈ are worked out from the molar mass of the structure shown.

In data set [1] the test system is Mycobacterium tuberculosis. Briefly: microbe, parasite or virus in culture. The settings on record: 168 h.
Description: Antimicrobial activity against Mycobacterium tuberculosis infected in patient at 400 mg/day, po administered for 7 days by HPLC
Data set [2] can be described thus: Tmax in tuberculosis patient at […], po administered for 7 days by HPLC. The format is ADME, organism-based. The settings on record: human, in vivo.
A short description of data set [3]: clinical. Particulars: human, in vivo, po, 400 mg/day.
Description: Tmax in tuberculosis patient at 400 mg/day, po administered for 7 days by HPLC
Data set [4] has as its system Mycobacterium tuberculosis. The format is functional. Particulars: 168 h.
The nature of data set [5]: clinical. The settings on record: human, in vivo, po, 1000 mg/day.
Description: Cmax in tuberculosis patient at 1000 mg/day, po administered for 7 days by HPLC
Data set [6] in a line: Clearance in tuberculosis patient at 1000 mg/day, po administered for 7 days measured after 24 hrs by HPLC. The data set is classed as ADME, organism-based. The settings on record: human, in vivo.
Data set [7] is described as follows: Ratio of fAUC in tuberculosis patient at 1000 mg/day, po administered for 7 days to MIC for Mycobacterium tuberculosis. The format is functional.

In data set [1], `COc1c(N2CCNC(C)C2)c(F)cc2c(=O)c(C(=O)O)cn(C3CC3)c12` (centres undefined) [GATIFLOXACIN] returned an MIC of 0.2 µg/mL (≈ 0.533 µM). In addition, in data set [2], the time to peak (Tmax) is 8 h. In “clinical [3]”, the time of peak concentration (Tmax) at 168 h was 2 h.

In the case of `C[C@H]1COc2c(N3CCN(C)CC3)c(F)cc3c(=O)c(C(=O)O)cn1c23.C[C@H]1COc2c(N3CCN(C)CC3)c(F)cc3c(=O)c(C(=O)O)cn1c23.O` [LEVOFLOXACIN], the MIC in data set [4] turned out to be 0.5 µg/mL. In the data set “clinical [5]”, this compound came in with a Cmax at 168 h of 9000 ng/mL. Also, in data set [6], the CL/F is 79 mL/min. The RatioAUC/MIC in data set [7] is given as 187.67.

For `COc1c(N2C[C@@H]3CCCN[C@@H]3C2)c(F)cc2c(=O)c(C(=O)O)cn(C3CC3)c12` [MOXIFLOXACIN], in data set [1], the MIC worked out at 0.5 µg/mL (≈ 1.25 µM). For the same compound, in the data set “clinical [3]”, the Tmax at 168 h is 2 h.

What is called Tmax is the time from dosing to the highest level. The term Cmax denotes the maximum level reached in the sampled fluid or tissue. As usually defined, the CL/F is the apparent clearance, not corrected for the fraction that reaches the circulation.
